Experimental findings from patent US20130072415A1, “DETERGENT COMPOSITIONS COMPRISING […] BLEND RATIOS of ISOPRENOID-BASED SURFACTANTS” (The Procter & Gamble Company, priority 2011, published 2013) are described below.

A short description of the series: Dynamic Interfacial Tension (DIFT) analysis, ascending canola oil drop in aqueous detergent phase. As to conditions: 100 ppm surfactant, 34 ppm Calcium/Magnesium water hardness (3:1), 22° C., pH 8-8.5. Type of series: physicochemical. The procedure:
The surfactant systems in Table 3 are analyzed via DIFT method. Ingredients listed are in ppm concentration as would be common in a detergent wash water solution. Analysis conditions are in water of 103 ppm Calcium/Magnesium water hardness level (3:1 Calcium:Magnesium), 21° C., pH 8-8.5. • Formula E contains a commercial branched Neodol® 67 AS surfactant. • Formula F contains 90A:10B AS of the present invention substituted for branched Neodol® 67 AS surfactant. • Formulas G and H are common detergent surfactant mixtures containing no branched alkyl sulfate surfactants.
The surfactant systems in Table 5 are analyzed via DIFT method. Ingredients listed are in ppm concentration as would be common in a detergent wash water solution. Analysis conditions are in water of 34 ppm Calcium/Magnesium water hardness level (3:1 Calcium:Magnesium), 22° C., pH 8-8.5.
Method: Dynamic Interfacial Tension Analysis. Dynamic Interfacial Tension (DIFT) analysis is performed on a Krüss® DVT30 Drop Volume Tensiometer (Krüss USA, Charlotte, N.C.). The instrument is configured to measure the interfacial tension (IFT) of an ascending oil drop in aqueous detergent (surfactant) phase. The oil used is canola oil (Crisco Pure Canola Oil manufactured by The J.M. Smucker Company). The aqueous detergent and oil phases are temperature controlled at 22° C. (+/−1° C.), via a recirculating water temperature controller attached to the tensiometer. A dynamic interfacial tension curve is generated by dispensing the oil drops into the aqueous detergent phase from an ascending capillary with an internal diameter of 0.2540 mm, over a range of flow rates and measuring the interfacial tension at each flow rate. Data is generated at oil dispensing flow rates of 500 uL/min to 1 uL/min with 2 flow rates per decade on a logarithmic scale (7 flow rates measured in this instance). Interfacial tension is measured on three oil drops per flow rate and then averaged. Interfacial tension is reported in units of mN/m. Surface age of the oil drops at each flow rate is also recorded and plots can be generated either of interfacial tension (y-axis) versus oil flow rate (x-axis) or interfacial tension (y-axis) versus oil drop surface age (x-axis). […] Example of analysis of a 100 ppm surfactant concentration, with water hardness (3:1 Ca:Mg) of 103 ppm, 22° C., pH 8: Density settings for 22° C. are set at 0.916 g/ml for Canola Oil and 0.998 g/ml for aqueous surfactant phase (assumed to be the same as water since dilute solution). To a 100 ml volumetric flask is added 1.00 mL of 1% (wt/wt) Surfactant solution in deionized water and the volumetric is then filled to the mark with […] 3:1 CaCl2:MgCl2 solution and mixed well. The solution is transferred to a beaker and the pH adjusted to 8 by addition of a few drops of 0.1N NaOH or […]. The solution is then loaded into the tensiometer measurement cell and analyzed. Total time from addition of hardness to surfactant and start of analysis is less than 5 minutes.

As to `CCC(CCCC(C)CCCC(C)C)CCOS(=O)(=O)[O-].[Na+]` (stereo not drawn) [B AS, sodium salt of 3-ethyl-7,11-dimethyldodecan-1-ol sulfate], the “IFT @ 1 uL/min Oil Flowrate” value turned out to be 0.35 mN/m, the “IFT @ 10 uL/min Oil Flowrate” value is reported as 1.6 mN/m and the “IFT @ 99 uL/min Oil Flowrate” value was 6.14 mN/m.
`CC(C)CCCC(C)CCCC(C)CCCOS(=O)(=O)[O-].[Na+]` (stereo not drawn) [A AS, sodium salt of 4,8,12-trimethyltridecan-1-ol sulfate]: the “IFT @ 1 uL/min Oil Flowrate” value is 0.17 mN/m, the “IFT @ 10 uL/min Oil Flowrate” value was 0.88 mN/m and the “IFT @ 99 uL/min Oil Flowrate” value was determined as 4.83 mN/m.
